What was measured:
α2β GlyR = target: T1, α2β GlyR (Homo sapiens, UniProt P23416+P48167); experiment: Whole-cell patch-clamp of glycine-induced currents, heteromeric α2β GlyR expressed in CHO cells; assay type: cell-based; settings: PTX 20 μM; glycine 30 μM; Vhold −30 mV
T1 construct: expressed in transfected cells; host or cells: CHO cells
Experimental: (§1) The experiments were carried out on cultured Chinese hamster ovary (CHO) cells obtained from the American Type Tissue Culture Collection (ATCC, Molsheim, France) that were maintained in culture conditions as previously described (Mukhtarov et al., [2013]; Maleeva et al., [2015]).
(§2) One day before transfection, cells were plated on the cover slips (12 mm in diameter) and placed inside 35-mm cell culture dishes with 2 ml of medium. Transfection was performed using the Lipofectamine 3000 protocol (Life Technology, USA). To facilitate identification of transfected cells a green fluorescent protein (GFP) was added to the transfection mixture. For expression of functional heteromeric receptors, cells were simultaneously transfected with cDNAs of α and β subunits in the ratio 1:10. Three hours after the initial exposure of cells to the cDNAs the culture medium was replaced with that containing strychnine (1 μM), which prevents spontaneous activation of GlyRs. Electrophysiological recordings were performed in the fluorescent cells 24–72 h after transfection.
(§3) Whole-cell and outside-out recordings were performed at room temperature (20–25°C) using an EPC-9 amplifier (HEKA Elektronik, Germany). Cells were continuously superfused with external solution containing (mM): NaCl 140, CaCl2 2, KCl 2.8, MgCl2 4, HEPES 20, glucose 10; pH 7.4; 320–330 mOsm. Intracellular solution used for filling recording patch pipettes contained (mM): CsCl 140, CaCl2 6, MgCl2 2, MgATP 2, NaGTP 0.4, HEPES/CsOH 10, BAPTA (tetrapotassium salt) 2; pH 7.3; 290 mOsm. Two different protocols of solutions application were used in this study. […] A “ramp protocol” implies the gradual change of Vhold alternately from −80 to +80 mV and from +80 to −80 mV during 1 s, Vhold was fixed at −80 or +80 mV at the beginning and at the end of the ramp for 500 ms (Figure 2B).
(§4) Recording pipettes were pulled from borosilicate glass capillaries (Harvard Apparatus Ltd, USA) and had resistances of 5–10 MOhm. For the rapid replacement of the solutions, the fast application system was used. Three parallel rectangular tubes (100 × 100 μm) were positioned 40–50 μm above the recorded cell. The movement of the tubes was controlled by a computer-driven fast exchange system (SF 77A Perfusion Fast-Step, Warner, USA) allowing a 10–90% solution exchange in 3–5 ms, as measured by open electrode controls (1/10 external solution/water). Cells with low input resistance (<150 MOhm) and a rapid run-down (>30% with repetitive application) were excluded from analysis.
(§5) Electrophysiological recordings were performed using PatchMaster (HEKA Electronic, Germany) software.

homomeric α1 GlyR = target: T2, homomeric α1 GlyR (Homo sapiens, UniProt P23415); experiment: Whole-cell patch-clamp of glycine-induced currents, α1 GlyR expressed in CHO cells; assay type: cell-based; settings: PTX 20 μM; glycine 30 μM; Vhold −30 mV
T2 construct: expressed in transfected cells; host or cells: CHO cells
T2 sequence (P23415 29-449 isoform P23415-2 limits assumed): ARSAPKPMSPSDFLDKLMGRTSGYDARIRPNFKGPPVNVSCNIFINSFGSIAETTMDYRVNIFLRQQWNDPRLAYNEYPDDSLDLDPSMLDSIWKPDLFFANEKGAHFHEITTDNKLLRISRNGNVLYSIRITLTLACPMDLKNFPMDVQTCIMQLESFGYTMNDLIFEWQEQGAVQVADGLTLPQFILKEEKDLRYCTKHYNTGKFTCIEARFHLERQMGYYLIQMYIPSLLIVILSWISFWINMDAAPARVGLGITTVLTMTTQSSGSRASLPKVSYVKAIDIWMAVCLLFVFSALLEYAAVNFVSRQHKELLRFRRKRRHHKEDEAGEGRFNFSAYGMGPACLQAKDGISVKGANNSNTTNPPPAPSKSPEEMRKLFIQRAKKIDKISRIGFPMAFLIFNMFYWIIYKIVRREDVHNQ
Experimental: as §1, §2, §3, §4, §5
(§6) The fractional electrical distance from the external side of the membrane (δ) at which bound NFA blocked the current was calculated using the Woodhull equation: IC50(V)=IC50(0) exp (−δFV/RT), where IC50(V) is IC50 at the given membrane potential, IC50(0) – at 0 mV, V – membrane potential and F, R, T have their usual meanings. δ was determined from a plot of IC50 values against membrane potential.

α2 GlyR = target: T3, α2 GlyR (Homo sapiens, UniProt P23416); experiment: Whole-cell patch-clamp of glycine-induced currents, α2 GlyR expressed in CHO cells; assay type: cell-based; settings: PTX 20 μM; glycine 30 μM; Vhold −30 mV
T3 construct: expressed in transfected cells; host or cells: CHO cells
T3 sequence (P23416 28-452 isoform P23416-2 limits assumed): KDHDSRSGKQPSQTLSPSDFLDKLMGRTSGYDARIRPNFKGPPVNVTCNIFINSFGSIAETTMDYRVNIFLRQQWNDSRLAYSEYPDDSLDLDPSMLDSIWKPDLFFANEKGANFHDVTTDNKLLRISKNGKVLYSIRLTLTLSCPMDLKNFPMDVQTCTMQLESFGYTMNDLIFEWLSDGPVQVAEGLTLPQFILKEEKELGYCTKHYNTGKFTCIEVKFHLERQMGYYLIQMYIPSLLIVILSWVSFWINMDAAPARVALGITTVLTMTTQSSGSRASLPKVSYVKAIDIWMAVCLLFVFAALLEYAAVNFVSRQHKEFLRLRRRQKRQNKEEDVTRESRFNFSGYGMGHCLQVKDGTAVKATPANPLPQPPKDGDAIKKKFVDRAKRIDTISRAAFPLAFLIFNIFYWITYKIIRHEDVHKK
Experimental: as §1, §2, §3, §4, §5, §6

α1β GlyR = target: T4, α1β GlyR (Homo sapiens, UniProt P23415+P48167); experiment: Whole-cell patch-clamp of glycine-induced currents, heteromeric α1β GlyR expressed in CHO cells; assay type: cell-based; settings: PTX 20 μM; glycine 30 μM; Vhold −30 mV
T4 construct: expressed in transfected cells; host or cells: CHO cells
Experimental: as §1, §2, §3, §4, §5

α2 GlyRs = settings: read-out: mean value of EC50 for glycine; ref Maleeva et al., 2015; cited from earlier work

T4 sequence (P48167 23-497, one chain of several): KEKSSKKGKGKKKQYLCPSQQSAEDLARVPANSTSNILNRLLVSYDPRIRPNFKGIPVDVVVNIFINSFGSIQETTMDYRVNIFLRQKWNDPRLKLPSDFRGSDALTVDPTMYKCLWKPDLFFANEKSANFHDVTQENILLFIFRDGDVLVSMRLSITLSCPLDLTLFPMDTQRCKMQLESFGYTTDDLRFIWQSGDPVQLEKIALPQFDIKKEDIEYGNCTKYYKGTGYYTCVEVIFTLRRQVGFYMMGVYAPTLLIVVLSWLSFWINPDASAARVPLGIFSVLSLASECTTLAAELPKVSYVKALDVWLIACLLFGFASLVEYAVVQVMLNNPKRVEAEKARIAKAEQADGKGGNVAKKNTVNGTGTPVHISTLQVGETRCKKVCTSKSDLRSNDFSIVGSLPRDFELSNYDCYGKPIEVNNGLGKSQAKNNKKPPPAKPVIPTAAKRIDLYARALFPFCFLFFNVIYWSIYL
T1 sequence (P48167 23-497, one chain of several): as above

Compound	current, % from the control (α2β GlyR)	amplitude of current, % of the control (homomeric α1 GlyR)	amplitude of current, % of the control (α2 GlyR)	current, % from the control (α1β GlyR)	EC50 (α2 GlyRs)
picrotoxin [PTX]	41 ± 4%	27 ± 3%	3 ± 1%	75 ± 2%	–
NCC(=O)O [glycine]	–	–	–	–	42 ± 2 µM
